Bounds are passed on as bounds.

Broadly, the melting point is the temperature of the solid-liquid transition. Regarding `CN(c1cccc2cc(C3=NCC(CCN4C(=O)CCC4=O)S3)[nH]c12)S(=O)(=O)c1cccs1` (stereo not given), the melting point fell in the range of 189 to 191 °C.
To `O=Cc1ccc2ccn(C(c3ccccc3)c3cccc(C=Cc4ccc5ccccc5n4)c3)c2c1` (stereo not given) belongs 75 °C; to `O=C(O)c1cc2sc3sccc3c2s1`, 276 °C.
Compound `CCCc1c(C)c(NC(=O)CC(C)(C)C)c(C)c2c1SCC2c1ccc(C(C)C)cc1` (stereo not given) gave a melting point of 159 to 160 °C.
In the case of `CCN1CCN(c2cccc3c2CC(NC(=O)c2ccc(N4CCOCC4)cc2)CC3)CC1` (stereo not given), the melting point is 204 to 206 °C.
In turn, `NC(=NO)c1ccc2c(c1)nc(-c1ccc(OCc3ccccc3)cc1)n2C1CCCC1` yielded a melting point of 225 to 226 °C.
The figure for `CCCc1c(OCc2cccn3c(=O)c(C(=O)O)cnc23)ccc(C(C)=O)c1O` is 170 to 172 °C; for `CC(=O)OC1CCCc2cnc3cc(OCc4ccccc4)ccc3c21` (stereo not given) it is 70 to 72 °C.
To `COC(=O)C(CNC(=O)C1CC1)c1cccc2ccccc12` (stereo not given) belongs 140 to 142 °C; to `CC(C)Cc1ccc(CCc2cc3c(s2)NC(=O)CN=C3c2ccccc2Cl)cc1`, 179 to 181 °C; to `COC(=O)c1ccccc1S(=O)(=O)NCC(=O)Nc1cc(C)on1`, 153 to 156 °C.
The figure for `O=C(O)c1ccccc1C(=O)NCCN1CCN(CCOC(c2ccccc2)c2ccccc2)CC1` is 45 °C; for `Nc1cn(-c2cccnc2)nc1C(F)(F)F` it is 112 to 115 °C.
Compound `O=C(O)CCc1cc2cc(Cl)ccc2n1S(=O)(=O)c1ccc2c(c1)OCO2` yielded a melting point of 207 °C.
`Cc1c(Br)c2c(c(C)c1NC(=O)OC(C)(C)C)C(O)C(C)(C)O2` (stereo not given) returned a melting point of 187 to 188 °C.
The compound `COc1cc(C=CC(=O)Nc2cnc3c(C)cc(C)cc3c2-c2ccccc2Cl)cc(OC)c1OC` came in with a melting point of 198 to 200 °C.
Regarding `O=C(O)CCSCCCCCCCCCCCCF`, the melting point was determined as 59 °C.
The figure for `Cc1ccc(-c2nc(C#N)c(-c3cccc(Cl)c3)n2-c2cc(Cl)ccc2C)cc1C` is 218 °C.
The figure for `c1cc2c(cn1)OCCN2` is 167 to 169 °C; for `Clc1cccc2c1CSCCCN2` it is 71 to 73 °C.
In turn, `COc1ccc(-c2ncnc(-c3ccc(C(F)(F)F)cc3F)c2N)c(O)c1` yielded a melting point of 100 to 103 °C.
The figure for `CC(C)c1ccc2c(c1)C(Cl)Cc1ccc(F)cc1S2` (stereo not given) is 82 to 83 °C; for `ClCc1coc(-c2cc3c(s2)CCCC3)n1` it is 102 to 103 °C; for `Cc1ccc2ccccc2c1N(C(=O)CCl)C1COC(=O)C1` (stereo not given) it is 121 to 122 °C.
Regarding `CS(=O)(=O)Nc1cc(C(c2cc(C#N)ccc2F)S(=O)(=O)c2ccc(Cl)cc2)c(Cl)cn1` (stereo not given), the melting point was in the range of 118 to 120 °C.
To `CCCCCCCCCCCCCCOc1ccc(CN2C(=O)c3ccncc3C2=O)cc1` belongs 76 to 77 °C; to `CCCC(C)Oc1cc(-n2c(=O)cc(C(F)(F)F)n(C)c2=O)c(F)cc1Cl` (stereo not given), 94 to 97 °C.
The compound `Cn1c([N+](=O)[O-])cnc1COc1ccc(SC#N)cc1` showed a melting point of 140 °C.
`COCc1cccc2sc(C(=O)O)cc12` yielded a melting point of 212 to 214 °C.
With `COC(=O)c1cncc(O)c1C(=O)OC`, the melting point lay within 136 to 137 °C.
The compound `Cc1ccccc1Nc1c(N)cnc2ccccc12` displayed a melting point of 156 to 158 °C.
As to `Cc1cc(-c2nnc3c4ccccc4c(OCc4cnn(C)c4)nn23)no1`, the melting point lay within 212 to 213 °C.
Consider `CCOC(=O)c1cccc(-c2cc3c(Cl)ncnc3[nH]2)c1`, for which the melting point is > 250 °C.
To `O=c1ccc2c(-n3cnc(Br)c3)nccc2[nH]1` belongs 278 to 280 °C; to `CC1(C)CCC(C)(C)c2cc(C=O)c(C#C[Si](C)(C)C)cc21`, 78.4 to 82 °C.

These data come from a melting point compilation (Tetko et al.; mined from patent text by program, amines drawn as free bases though some values may be those of a salt).
